Numbering of substitutions follows the chain as printed. “Also recorded” adds a separate entry of the source.
Tests used:
[1] = biological target: T1, hENT1cryst (Homo sapiens, UniProt Q99808, DEL243-274/L168F/N288K/P175A); assay: cold-competition SPA: displacement of 3H-NBMPR from detergent purified hENT1cryst; type: binding
T1 construct: GFP; FLAG; His10; made in house
T1 sequence (Q99808 with tags, fused parts or gaps L168F/P175A/DEL243-274/N288K): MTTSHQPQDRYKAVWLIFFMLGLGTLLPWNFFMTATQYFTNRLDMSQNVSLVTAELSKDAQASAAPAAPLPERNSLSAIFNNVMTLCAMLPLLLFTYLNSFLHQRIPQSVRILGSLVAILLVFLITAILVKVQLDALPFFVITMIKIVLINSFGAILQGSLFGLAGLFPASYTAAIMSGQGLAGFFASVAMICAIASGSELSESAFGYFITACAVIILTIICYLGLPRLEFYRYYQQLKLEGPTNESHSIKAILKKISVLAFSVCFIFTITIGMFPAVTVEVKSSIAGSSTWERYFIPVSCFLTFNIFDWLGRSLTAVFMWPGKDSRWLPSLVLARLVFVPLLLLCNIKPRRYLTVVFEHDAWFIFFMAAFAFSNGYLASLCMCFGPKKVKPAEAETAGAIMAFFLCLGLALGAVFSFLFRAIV
Method: The binding of cold competitor (dilazep control or JH-ENT-01) to hENT1cryst (85 nM) was assessed by the displacement of ^3H-NBMPR (10 nM) from the transporter (n=6 technical replicates from two representative experiments shown, error bars represent S.E.M.) FIG. 18A-C show initial functional characterization of novel hENT1 inhibitors.
A scintillation proximity assay was developed to measure binding of ^3H-NBMPR to hENT1-GFP fusion expressed and detergent solubilized from transiently transfected HEK293T cells (see Methods for details). By successively heating the assay mixture at increasing temperatures and measuring binding signal with scintillation counting, Tm values were determined for engineered hENT1 constructs bearing point mutations or truncations of disordered loops. Point mutations were designed based on a consensus approach, which is described in the Methods section of this chapter. A total of 40 point mutations or disordered-loop truncations were screened with this ^3H-NBMPR SPA approach (FIG. 4A). Mutations L168F, P175A and N288K were identified to substantially increase Tm. […] Importantly, hENT1cryst mediates nucleoside transport to a level consistent with a previous report in proteoliposomes (FIG. 3A) and is also functionally active in when expressed in oocytes (FIG. 3B). […]

[2] = plasma, brain and spinal cord pharmacokinetics after subcutaneous dosing; type: in vivo, Male CD-1 mice; details: for distribution into CNS tissue: brain and spinal cord, s.c. dosing, in equilibrium with plasma, no accumulation
Method: FIG. 27A-D show plasma (FIG. 27A), brain (FIG. 27B), and spinal cord (FIG. 27C) pharmacokinetics (PK) of JH-ENT-01 and dilazep. […] Male CD-1 mice (n=3 per time-point) were dosed subcutaneously (inj. volume: 8 μL/g BW) with 30 mg/kg of JH-ENT-01 (free base) and 29 mg/kg (molar equivalent) of dilazep dihydrochloride. Both drugs were formulated in 5% DMSO, 20% PEG-400, 20% propylene glycol, and 55% saline. Blood and tissues were collected at 10 min, 0.5, 1.5, 4.5, 8, 12, and 24 h. Following collection, the animals were perfused with saline. Liquid chromatography-tandem-mass spectrometry (LC/MS/MS) was used to determine drug concentration in samples. Pharmacokinetic parameters were calculated by non-compartmental approach within Win-Nonlin software. […] The distribution of both drugs into CNS tissue is high and is in equilibrium with plasma drug concentration (i.e., no drug accumulation in CNS).

[3] = biological target: T2, hENT1 (Homo sapiens, UniProt Q99808); assay: 3H-adenosine uptake in oocytes expressing hENT1; type: cell-based; details: initial experiment n=1, FIG. 19
T2 construct: expressed in transfected cells; host or cells: oocytes (X. laevis)
T2 sequence (Q99808 1-456): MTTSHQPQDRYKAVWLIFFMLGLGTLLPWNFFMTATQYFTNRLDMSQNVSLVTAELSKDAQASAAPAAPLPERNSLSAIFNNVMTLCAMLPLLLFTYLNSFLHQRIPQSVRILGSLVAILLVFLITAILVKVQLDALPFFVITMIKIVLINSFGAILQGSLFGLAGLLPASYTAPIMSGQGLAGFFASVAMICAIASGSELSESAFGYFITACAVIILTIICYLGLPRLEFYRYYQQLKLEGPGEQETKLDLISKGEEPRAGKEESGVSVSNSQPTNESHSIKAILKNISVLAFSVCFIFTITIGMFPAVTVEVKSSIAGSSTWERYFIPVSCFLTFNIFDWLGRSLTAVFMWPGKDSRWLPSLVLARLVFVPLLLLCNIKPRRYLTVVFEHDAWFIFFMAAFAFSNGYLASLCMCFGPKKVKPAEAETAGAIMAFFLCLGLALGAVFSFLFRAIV
Method: (§1) Initial experiment (n=1 replicates) showing JH-ENT-01 inhibits both hENT1 and hENT2 mediated uptake of ^3H-adenosine.
(§2) The subtype specificities for these compounds are currently unknown and pending further investigation with functional assays. Towards this end, established assays in oocytes permitted the measurement of nucleoside transport activity for multiple ENT subtypes (FIG. 18C) and the novel inhibitors were tested for their activities on different ENT subtypes (FIG. 19).

[4] = biological target: T3, hENT2 (Homo sapiens, UniProt Q14542); assay: 3H-adenosine uptake in oocytes expressing hENT2; type: cell-based; details: initial experiment n=1, FIG. 19
T3 construct: expressed in transfected cells; host or cells: oocytes (X. laevis)
T3 sequence (Q14542 1-456): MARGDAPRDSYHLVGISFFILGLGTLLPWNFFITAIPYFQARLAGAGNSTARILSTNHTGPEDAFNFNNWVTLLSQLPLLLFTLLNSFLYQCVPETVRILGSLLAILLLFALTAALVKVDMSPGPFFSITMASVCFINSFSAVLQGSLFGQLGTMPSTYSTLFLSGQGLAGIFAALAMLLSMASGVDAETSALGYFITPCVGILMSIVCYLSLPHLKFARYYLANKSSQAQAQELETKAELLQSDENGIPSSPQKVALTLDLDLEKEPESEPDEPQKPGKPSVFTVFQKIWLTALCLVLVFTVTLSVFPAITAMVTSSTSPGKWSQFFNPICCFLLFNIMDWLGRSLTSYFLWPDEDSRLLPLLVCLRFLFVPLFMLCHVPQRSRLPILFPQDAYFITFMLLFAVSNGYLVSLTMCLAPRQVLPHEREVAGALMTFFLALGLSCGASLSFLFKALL
Method: as §1, §2

[5] = tested on: SNI-induced neuropathic pain; assay: SNI-induced neuropathic pain measured by PWF; type: in vivo; details: i.t., 100 nmol; p<0.05; n=4 males per group
[6] = biological target: T4, hENT1cryst mutants (M33I, F307A, F307Y) (Homo sapiens, UniProt Q99808, DEL244-275/F307A/L168F/N288K/P175A); assay: cold competition displacement of 3H-NBMPR by dilazep, hENT1cryst mutants; type: binding; details: F307A mutant vs hENT1cryst
T4 construct: GFP; FLAG; His10; made in house
T4 sequence (Q99808 with tags, fused parts or gaps L168F/P175A/DEL244-275/N288K/F307A): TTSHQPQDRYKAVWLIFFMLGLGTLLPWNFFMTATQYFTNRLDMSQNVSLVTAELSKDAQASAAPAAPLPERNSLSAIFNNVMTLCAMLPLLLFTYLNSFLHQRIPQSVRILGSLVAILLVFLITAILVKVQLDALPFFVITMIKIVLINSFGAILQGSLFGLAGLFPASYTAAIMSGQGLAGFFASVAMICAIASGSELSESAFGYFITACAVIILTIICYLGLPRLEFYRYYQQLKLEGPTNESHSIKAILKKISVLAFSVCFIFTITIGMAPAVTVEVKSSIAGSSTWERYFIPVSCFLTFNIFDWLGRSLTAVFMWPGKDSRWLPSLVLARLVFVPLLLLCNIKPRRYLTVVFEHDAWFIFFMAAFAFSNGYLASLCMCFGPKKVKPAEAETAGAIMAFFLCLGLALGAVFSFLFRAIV
Description: (§3) This is substantiated by the equilibrium binding data, as both Q158S and Q158N ablate 3H-NBMPR binding capacity (FIG. 13B). […] This finding is consistent with previous reports on inhibitor sensitivities to substitutions at position 33 of hENT1.

[7] = biological target: T5, hENT1cryst mutants (M33I, F307A, F307Y) (Homo sapiens, UniProt Q99808, DEL244-275/F307Y/L168F/N288K/P175A); assay: as above; type: binding; details: F307Y mutant vs hENT1cryst
T5 construct: GFP; FLAG; His10; made in house
T5 sequence (Q99808 with tags, fused parts or gaps L168F/P175A/DEL244-275/N288K/F307Y): T4 sequence (Q99808 with tags, fused parts or gaps L168F/P175A/DEL244-275/N288K/F307A) with A274Y
Description: as §3

[8] = biological target: T6, hENT1cryst mutants (M33I, F307A, F307Y) (Homo sapiens, UniProt Q99808, DEL244-275/L168F/M33I/N288K/P175A); assay: as above; type: binding; details: M33I mutant vs hENT1cryst
T6 construct: GFP; FLAG; His10; made in house
T6 sequence (Q99808 with tags, fused parts or gaps M33I/L168F/P175A/DEL244-275/N288K): T4 sequence (Q99808 with tags, fused parts or gaps L168F/P175A/DEL244-275/N288K/F307A) with M32I, A274F
Description: as §3

[9] = s.c. 30 mg/kg JH-ENT-01 (free base) vs 29 mg/kg dilazep dihydrochloride

| SMILES | increase in binding affinity to hENT1cryst ([1]; cold competitor vs dilazep control, hENT1cryst 85 nM, 3H-NBMPR 10 nM) | binding to target ([1]; in words, compared to dilazep (FIG. 17)) | distribution into CNS tissue [2] | half-life compared to dilazep [2, 9] | plasma AUC compared to dilazep [2, 9] | inhibition of hENT1 mediated uptake of 3H-adenosine [3] | inhibition of hENT2 mediated uptake of 3H-adenosine [4] | effect on SNI-induced neuropathic pain (PWF) [5] | increase in apparent Kd for dilazep [6] | decrease in apparent Kd for dilazep [7] | increase in apparent Kd for dilazep [8] |
| --- | --- | --- | --- | --- | --- | --- | --- | --- | --- | --- | --- |
| COc1cc(C(=O)OCCCN2CCCN(CCCOC(=O)c3cc(OC)c(OC)c(OCc4ccc([N+](=O)[O-])cc4)c3)CC2)cc(OC)c1OC [JH-ENT-01] | ~2 fold | improved binding to target compared to dilazep | high | longer half-life | higher plasma AUC | inhibits; also recorded: retains potent inhibition activity | inhibits | reversing SNI-induced neuropathic pain | – | – | – |
| COc1cc(C(=O)OCCCN2CCCN(CCCOC(=O)c3cc(OC)c(OC)c(OC)c3)CC2)cc(OC)c1OC [dilazep] | – | – | high | – | – | – | – | – | ~90 fold | ~4 fold | ~3 fold |

Source: US20260069604A1, “NOVEL EQUILIBRATIVE NUCLEOSIDE TRANSPORTER INHIBITORS AND METHODS OF MAKING AND USING SAME” (Duke University, priority 2022, published 2026)
